From patent US20110015198A1, “DIARYLMETHYLAMIDE DERIVATIVE HAVING MELANIN-CONCENTRATING HORMONE RECEPTOR ANTAGONISM” (BANYU PHARMACEUTICAL CO., INC., priority 2008, published 2011) come the findings set out here.

Usually IC50 stands for the concentration that gives 50% inhibition.

For the test, the target named is T1, human MCH-1R (Homo sapiens, UniProt Q99705).
T1 construct: expressed in transfected cells; host or cells: CHO-K1 (American Type Culture Collection), plasmid vector pEF/myc/cyto
The test can be described thus: MCH binding inhibition test. Conditions: membrane samples from MCH-1R expressing CHO-K1 cells, 50 pM [125I]MCH, 25° C., one hour; read-out: IC50 (nM); 50% inhibition concentration (IC50 value) for specific [125I]MCH binding. The source says:
Pharmacological test example: MCH binding inhibition test A cDNA sequence encoding human MCH-1R [FEBS Letters, Vol. 398, 253 (1996); Biochimica et Biophisica Acta, Vol. 1401, 216 (1998)] was cloned to a plasmid vector pEF/myc/cyto (manufactured by Invitrogen). The obtained expression vector was transfected to a host cell CHO-K1 (American Type Culture Collection) using Lipofectamine Plus reagent (manufactured by Life Technology) to provide MCH-1R expression cells.
Membrane samples prepared from the MCH-1R expression cells were incubated with a test compound and 50 pM [^125I]MCH (manufactured by NEN) in an assay buffer (50 mM Tris buffer containing 10 mM magnesium chloride, 2 mM ethylenediamine tetraacetate, 0.01% bacitracin, and 0.2% bovine serum albumin; pH 7.4) at 25° C. for one hour, followed by filtration through a glass filter GF/C (manufactured by Wattman). The glass filter was washed with 50 mM Tris buffer (pH 7.4) containing 10 mM magnesium chloride, 2 mM ethylenediamine tetraacetate, and 0.04% Tween-20, and then the radioactivity on the glass filter was determined Non-specific binding was measured in the presence of 1 μM human MCH, and, with respect to each test compound, 50% inhibition concentration (IC50 value) for specific [^125I]MCH binding was determined.

T1 sequence (Q99705 whole entry): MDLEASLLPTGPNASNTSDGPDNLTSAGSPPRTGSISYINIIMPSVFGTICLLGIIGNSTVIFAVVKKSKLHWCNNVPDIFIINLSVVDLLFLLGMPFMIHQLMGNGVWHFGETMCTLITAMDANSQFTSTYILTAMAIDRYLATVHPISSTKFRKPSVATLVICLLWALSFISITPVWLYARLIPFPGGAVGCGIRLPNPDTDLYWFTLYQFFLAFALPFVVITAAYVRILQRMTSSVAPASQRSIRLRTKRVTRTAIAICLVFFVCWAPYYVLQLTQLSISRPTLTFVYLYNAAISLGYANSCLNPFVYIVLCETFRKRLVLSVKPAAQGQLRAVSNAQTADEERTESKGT

Turning to `CN(C(=O)C(C)(C)O)C(c1ccc(F)c(F)c1)c1ccc(CN2CCC(c3ccc(F)nc3)CC2)cn1` (single isomer, unassigned) [Example 1-37, (R)— or (S)—N-[(3,4-difluorophenyl)(5-{[4-(6-fluoropyridin-3-yl)piperidin-1-yl]methyl}pyridin-2-yl)methyl]-2-hydroxy-N,2-dimethylpropanamide], the IC50 was determined as 17 nM.

On to `CC(NC(=O)C(F)F)(c1ccc(F)c(F)c1)c1ccc(CN2CCC(c3ccc(F)nc3)CC2)cn1` (single isomer, unassigned) [Example 1-58, (R)— or (S)—N-[1-(3,4-difluorophenyl)-1-(5-{[4-(6-fluoropyridin-3-yl)piperidin-1-yl]methyl}pyridin-2-yl)ethyl]-2,2-difluoroacetamide], for which the IC50 was determined as 1.7 nM.

Consider `O=C1C(F)CCN1C(c1ccc(CN2CCC3(CC2)OCc2ccncc23)cc1)c1ccc(F)c(F)c1` (single isomer, unassigned) [Example 2-5, (3R)— or (3S)—[(R)— or (S)-1-{(3,4-difluorophenyl)[4-(1H,1′H-spiro[furo[3,4-c]pyridine-3,4′-piperidin]-1′-ylmethyl)phenyl]methyl}]-3-fluoropyrrolidin-2-one], for which the IC50 amounted to 0.18 nM.

Turning to `Cn1cc2c(cc1=O)C1(CCN(Cc3ccc(C(c4ccc(F)c(F)c4)N4CCCS4(=O)=O)cc3)CC1)OC2` (centres unmarked) [Example 1-20, 1′-{4-[(3,4-difluorophenyl)(1,1-dioxideisothiazolidin-2-yl)methyl]benzyl}-5-methyl-3,5-dihydro-6H-spiro[furo[3,4-c]pyridine-1,4′-piperidin]-6-one], the IC50 is 2.9 nM.

Consider `O=C1CCCN1C(c1ccc(CN2CCC3(CC2)OCc2ccncc23)cc1)c1ccc(F)c(F)c1` (centres unmarked) [Example 2-1, 1-{(3,4-difluorophenyl)[4-(1H,1′H-spiro[furo[3,4-c]pyridine-3,4′-piperidin]-1′-ylmethyl)phenyl]methyl}pyrrolidin-2-one], for which the IC50 was found to be 0.26 nM.
